From paper PMC9352670 (2022) come the findings set out here.

What all share (experiment): microscale thermophoresis
Background: MST reads how a fluorescent partner responds to local heating, with and without ligand.

The subject of assay [1] is Dm-LS-3 (DNA, aptamer, HFNAP: side-chain on 5' nucleobase of each coding trinucleotide, positions 19,22,25,...,61 (codon key Figure 1B)) GAAAGCAGGACTGGAGATTCGCATCGCTACTCCTCCTTGCCGTCCCACCGCCCACTGCTACCTCAGACCGAACTAGAGCTT
Particulars: 5 mM KCl, 1 mM MgCl2, 1 mM CaCl2 added; HBS-P+ buffer, 25 °C.

The subject of assay [2] is Dm-HS-8 ∆ s.c. (DNA, aptamer, none (no side-chains)) GAAAGCAGGACTGGAGATCGATTGCAGTTACGTCTCCCCTGCCCACCTTATTGCCATTCATAACAGACCGAACTAGAGCTT
The note with it: 5 mM KCl, 1 mM MgCl2, 1 mM CaCl2 added; HBS-P+ buffer, 25 °C.

The test system of assay [3] is Dm-CCS-4 (DNA, aptamer, HFNAP: side-chain on 5' nucleobase of each coding trinucleotide, positions 19,22,25,...,61 (codon key Figure 1B)) GAAAGCAGGACTGGAGATCGCTGACAGCGATCCCGACTGTGATCTTGCTGCTGCCTCTCGCGCCAGACCGAACTAGAGCTT
Particulars: 5 mM KCl, 1 mM MgCl2, 1 mM CaCl2 added; HBS-P+ buffer, 25 °C.

Assay [4] has as its system Dm-HS-4 ∆ s.c. (DNA, aptamer, none (no side-chains)) GAAAGCAGGACTGGAGATCGATTCTGGTGCTGTTGATCTCCGCCATTGTGCTCCTACCCTTCGCAGACCGAACTAGAGCTT
The note with it: 5 mM KCl, 1 mM MgCl2, 1 mM CaCl2 added; HBS-P+ buffer, 25 °C.

Assay [5] relates to Dm-HS-1 TTG ∆ s.c. (DNA, aptamer, no side-chain at 46 (codon 10 TTG); others as HFNAP: fluorophenyl at 19; allylamine at 22, 25, 37; alcohol at 28, 34, 49; phenol at 31; cyclopentyl at 40; cyclopropyl at 43, 58; imidazole at 52, 55, 61) GAAAGCAGGACTGGAGATCGATTCTGGTGCTGTTGATCTCCGCCATTGTGCTCCTACCCTTCACAGACCGAACTAGAGCTT
The note with it: 5 mM KCl, 1 mM MgCl2, 1 mM CaCl2 added to HBS-P+; HBS-P+ buffer, 25 °C.

In assay [6] the test system is Dm-reference-based-random-after-selection-2 (DNA, other, HFNAP: side-chain on 5' nucleobase of each coding trinucleotide, positions 19,22,25,...,61 (codon key Figure 1B)) GAAAGCAGGACTGGAGATTTGTGCCCCTGATGCCCATGGTCCCTCCGCTGCTAACGTTTGCCTCAGACCGAACTAGAGCTT
The note with it: 5 mM KCl, 1 mM MgCl2, 1 mM CaCl2 added; HBS-P+ buffer, 25 °C.

Assay [7] relates to Dm-HS-5 (DNA, aptamer, HFNAP: side-chain on 5' nucleobase of each coding trinucleotide, positions 19,22,25,...,61 (codon key Figure 1B)) GAAAGCAGGACTGGAGATCGATTCTGGTGCTGTTGATCTCCGCCATTGTGCTCCTGCCCTTCACAGACCGAACTAGAGCTT
Particulars: 5 mM KCl, 1 mM MgCl2, 1 mM CaCl2 added; HBS-P+ buffer, 25 °C.

In assay [8] the test system is Dm-HS-1 TCA ∆ s.c. (DNA, aptamer, no side-chain at 61 (codon 15 TCA); others as HFNAP: fluorophenyl at 19; allylamine at 22, 25, 37; alcohol at 28, 34, 49; phenol at 31, 46; cyclopentyl at 40; cyclopropyl at 43, 58; imidazole at 52, 55) GAAAGCAGGACTGGAGATCGATTCTGGTGCTGTTGATCTCCGCCATTGTGCTCCTACCCTTCACAGACCGAACTAGAGCTT
Particulars: 5 mM KCl, 1 mM MgCl2, 1 mM CaCl2 added to HBS-P+; HBS-P+ buffer, 25 °C.

Assay [9] relates to Dm-CCS-5 (DNA, aptamer, HFNAP: side-chain on 5' nucleobase of each coding trinucleotide, positions 19,22,25,...,61 (codon key Figure 1B)) GAAAGCAGGACTGGAGATTTCTACTATCTCCAGCCGTTCCACCACTGATGCCCTTAGTATCCTCAGACCGAACTAGAGCTT
Particulars: 5 mM KCl, 1 mM MgCl2, 1 mM CaCl2 added; HBS-P+ buffer, 25 °C.

The test system of assay [10] is Dm-CCS-2 (DNA, aptamer, HFNAP: side-chain on 5' nucleobase of each coding trinucleotide, positions 19,22,25,...,61 (codon key Figure 1B)) GAAAGCAGGACTGGAGATCGTTTATGGCCACCTCCTTGACAGTTGCCCTGCCTCCAGTCCTCCCAGACCGAACTAGAGCTT
The note with it: 5 mM KCl, 1 mM MgCl2, 1 mM CaCl2 added; HBS-P+ buffer, 25 °C.

The test system of assay [11] is Dm-LS-4 (DNA, aptamer, HFNAP: side-chain on 5' nucleobase of each coding trinucleotide, positions 19,22,25,...,61 (codon key Figure 1B)) GAAAGCAGGACTGGAGATCCGCGCCGCTTTTATCCCTAGTCCCTCTTACCCTACTTCCCCTTACAGACCGAACTAGAGCTT
Particulars: 5 mM KCl, 1 mM MgCl2, 1 mM CaCl2 added; HBS-P+ buffer, 25 °C.

Assay [12] concerns Dm-HS-7 (DNA, aptamer, HFNAP: side-chain on 5' nucleobase of each coding trinucleotide, positions 19,22,25,...,61 (codon key Figure 1B)) GAAAGCAGGACTGGAGATCGATTGCAGTTACGTTGCTAGTCCCCTTGATCACCTCCGTCACCTCAGACCGAACTAGAGCTT
The note with it: 5 mM KCl, 1 mM MgCl2, 1 mM CaCl2 added; HBS-P+ buffer, 25 °C.

The test system of assay [13] is Dm-HS-2 (DNA, aptamer, HFNAP: side-chain on 5' nucleobase of each coding trinucleotide, positions 19,22,25,...,61 (codon key Figure 1B)) GAAAGCAGGACTGGAGATCTATGGTCGCATCGTTGACCCTTGTCCTGCCCCTGTCTCTCTCAACAGACCGAACTAGAGCTT
The note with it: 5 mM KCl, 1 mM MgCl2, 1 mM CaCl2 added; HBS-P+ buffer, 25 °C.

Assay [14] relates to Dm-HS-1 TAC ∆ s.c. (DNA, aptamer, no side-chain at 55 (codon 13 TAC); others as HFNAP: fluorophenyl at 19; allylamine at 22, 25, 37; alcohol at 28, 34, 49; phenol at 31, 46; cyclopentyl at 40; cyclopropyl at 43, 58; imidazole at 52, 61) GAAAGCAGGACTGGAGATCGATTCTGGTGCTGTTGATCTCCGCCATTGTGCTCCTACCCTTCACAGACCGAACTAGAGCTT
The note with it: 5 mM KCl, 1 mM MgCl2, 1 mM CaCl2 added to HBS-P+; HBS-P+ buffer, 25 °C.

For the molecule `COc1cccc2c1C(=O)c1c(O)c3c(c(O)c1C2=O)C[C@@](O)(C(C)=O)C[C@@H]3O[C@H]1C[C@H](N)[C@H](O)[C@H](C)O1`, the Kd is 2230 ± 100 nM in assay [1]; 8.5 ± 2.3 nM in assay [3]; 32.6 ± 5.0 nM in assay [5]; 114400 ± 7400 nM in [6]; 6.16 ± 3.4 nM in assay [7]; 10.1 ± 1.6 nM in [8]. The Kd in assay [9] is 10.4 ± 1.5 nM; in assay [10] it was 16.6 ± 14.0 nM; in assay [11] it was 1980 ± 70 nM; in assay [12], 18.09 ± 5.2 nM; in assay [13], 4.77 ± 1.0 nM; in assay [14], 21.7 ± 2.1 nM. Moreover, the figures for the “Kd ∆ side-chains” value in [2] and in [4] were 4840 ± 260 nM and 1810 ± 57 nM, respectively.

As usually defined, the Kd is the constant that tells how readily two partners part at equilibrium.
